{"source": "paper PMC11090880", "about": "(Current Research in Microbial Sciences, 2024)", "target": "OROV Endo-Nter (N-terminal endonuclease domain of the OROV RNA polymerase, L protein) (Oropouche virus, UniProt A0A0B5CUJ1)", "assay": "FRET cleavage assay of dual-labelled DNA", "format": "biochemical"}
{"smiles": "COc1cc(O)c2c(c1)oc(=O)c1c3cc(O)c(O)cc3oc21", "note": "[WDL, 7‑methoxy 5,11,12-trihydroxy-coumestan]", "values": [{"measurement": "IC50", "result": "310 ± 8", "unit": "nM"}]}
